Results published in patent publication US20250326771A1, “PIPERAZINE DERIVATIVES USEFUL IN HIV THERAPY” (VIIV HEALTHCARE COMPANY, priority 2022, published 2025).

What was measured:
cIAP1-BIR3 = cIAP1-BIR3 (Homo sapiens (Human), UniProt Q13490); assay: BIR binding assay (FRET competition), cIAP1 BIR3; details: for cIAP1 BIR3 vs BIR2 separation window: fold separation (FS) for cIAP1
In short: (§1)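 His-tagged domains (50 nM cIAP1-BIR3, 325 nM cIAP2-BIR2, 325 nM cIAP1-BIR2, 100 nM XIAP-BIR3) compete with compounds for a 200 nM AlexaFluor647-labelled SMAC/DIABLO peptide in HEPES buffer, pH 7.4, for 60 min. Then 2 nM Eu-W1024 is added for 30 min. The 615/665 nm ratio is fit by four-parameter fit to give IC50.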

XIAP-BIR3 = XIAP-BIR3 (Homo sapiens (Human), UniProt P98170); assay: BIR binding assay (FRET competition), XIAP BIR3
In short: as §1

[1] = test system: Jurkat HIV-luciferase clones; assay: Jurkat latency reversal assay; format: cell-based; details: Homo sapiens, 48 h; Jurkat latency reversal assay potency; read-out: Jurkat pEC50 (converted)
In short: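 Luminescence read-out: Steady-Glo after 48 h, 37° C, on mixed Jurkat HIV-luc clones (C16, 115, N6; 5,000 cells/well total). Cpd 14-pt 3-fold dilutions, duplicate, top 10 μM, 0.5% DMSO. EC50 + max % activation vs vehicle via 4-parameter fit.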

cIAP2-BIR2 = cIAP2-BIR2 (Homo sapiens (Human), UniProt Q13489); assay: BIR binding assay (FRET competition), cIAP2 BIR2
Protocol: (§2) The BIR domain binding assays are FRET based competition assays that utilize His-tagged versions of each of the BIR2 and BIR3 domains from cIAP1, cIAP2, and XIAP (each domain assayed separately) each at a custom optimal concentration and a probe, 200 nM SMAC/DIABLO peptide […] labelled with AlexaFluor647 (part #crb 1110326h, Discovery Peptides). The assay is conducted in 50 mM HEPES, […], 1 mM CHAPS, 5% Glycerol, 1 mM DTT, in dI water with a final pH of 7.4 and final volume of 20 uL. Final protein domain concentrations are: 50 nM cIAP1-BIR3 (Part #APT-11-370 Reaction Biology), 100 nM XIAP-BIR3 (Part #APT-11-351 Reaction Biology), 200 nM XIAP-BIR2 (Part #APT-11-470 Reaction Biology), 325 nM cIAP2-BIR2 (Part #APT-11-489 Reaction Biology), 50 nM cIAP2-BIR3 (Part #APT-11-372 Reaction Biology), 325 nM cIAP1-BIR2 (Part #APT-11-487 Reaction Biology). Compounds were plated using a HP Tecan D300 printer in a final total volume of 202 nl and DMSO concentration normalized across the 15-point, 3-fold dilution series. Peptide and probe were prepared at 2× relative to the concentrations above in binding buffer, 10 uL added to the prepared compound plates, and incubated for 60 minutes. LANCE Eu-W1024 (part #AD0401 Perkin Elmer #, vendor) was prepared at 2× concentration in binding buffer for final concentration of 2 nM, 10 uL added to each well, and plates incubated for 30 minutes. Plates were read on an ENVISION multifunction plate reader with […] laser excitation to obtain the 615 nm/665 nm emission ratio as indicative of probe:protein proximity. Data was analyzed using GraphPad PRISM and curves fit using log(inhibitor) vs. response—Variable slope (four […] method to obtain IC50 and pIC50 values.

cIAP2-BIR3 = cIAP2-BIR3 (Homo sapiens (Human), UniProt Q13489); assay: BIR binding assay (FRET competition), cIAP2 BIR3; details: for cIAP2 BIR3 vs BIR2 separation window: fold separation (FS) for cIAP2
cIAP1-BIR2 = cIAP1-BIR2 (Homo sapiens (Human), UniProt Q13490); assay: BIR binding assay (FRET competition), cIAP1 BIR2
Protocol: as §2

cIAP2-BIR3, sequence (Q13489 238-349): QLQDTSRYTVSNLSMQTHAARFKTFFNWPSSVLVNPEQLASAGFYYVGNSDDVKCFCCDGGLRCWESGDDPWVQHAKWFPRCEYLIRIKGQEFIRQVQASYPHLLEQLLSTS
cIAP2-BIR2, sequence (Q13489 158-242): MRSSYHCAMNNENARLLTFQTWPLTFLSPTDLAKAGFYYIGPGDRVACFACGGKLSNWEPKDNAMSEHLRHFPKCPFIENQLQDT
cIAP1-BIR3, sequence (Q13490 253-363): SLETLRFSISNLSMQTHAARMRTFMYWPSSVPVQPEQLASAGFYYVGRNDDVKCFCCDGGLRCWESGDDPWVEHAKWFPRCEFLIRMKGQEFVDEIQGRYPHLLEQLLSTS
XIAP-BIR3, sequence (P98170 241-356): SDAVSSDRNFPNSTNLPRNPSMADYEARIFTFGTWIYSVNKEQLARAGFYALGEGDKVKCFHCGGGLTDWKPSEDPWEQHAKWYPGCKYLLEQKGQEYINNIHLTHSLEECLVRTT
cIAP1-BIR2, sequence (Q13490 173-257): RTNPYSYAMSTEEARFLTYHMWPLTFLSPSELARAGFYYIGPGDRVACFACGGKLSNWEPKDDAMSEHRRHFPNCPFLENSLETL

Row | Structure (SMILES) | IC50 (cIAP1-BIR3) [nM] | IC50 (XIAP-BIR3) [nM] | EC50 [1] [nM] | IC50 (cIAP2-BIR2) [nM] | IC50 (cIAP2-BIR3) [nM] | IC50 (cIAP1-BIR2) [nM] | cIAP1 BIR3 vs BIR2 separation window (cIAP1-BIR3) | cIAP2 BIR3 vs BIR2 separation window (cIAP2-BIR3) | cIAP1 BIR3 (pIC50) (cIAP1-BIR3; FRET competition) | XIAP BIR3 (pIC50) (XIAP-BIR3; FRET competition) | cIAP2 BIR2 (pIC50) (cIAP2-BIR2; FRET competition) | cIAP2 BIR3 (pIC50) (cIAP2-BIR3; FRET competition) | cIAP1 BIR2 (pIC50) (cIAP1-BIR2; FRET competition)
1 | C[C@@H]1CN(CC(=O)N2CC(C)(C)c3[nH]c(=O)c(Cc4ccc(F)cc4)cc32)[C@@H](CN2CCO[C@H](COc3ccccc3-c3ccccc3OC[C@@H]3CN(C[C@H]4CN[C@H](C)CN4CC(=O)N4CC(C)(C)c5[nH]c(=O)c(Cc6ccc(F)cc6)cc54)CCO3)C2)CN1 [Example 67, 1,1′-(2,2′-((3R,3′R,6R,6′R)-(((2S,2'S)—(([1,1′-biphenyl]-2,2′-diylbis(oxy))bis(methylene))bis(morpholine-2,4-diyl))bis(methylene))bis(3-methylpiperazine-6,1-diyl))bis(acetyl))bis(6-(4-fluorobenzyl)-3,3-dimethyl-1,2,3,4-tetrahydro-5H-pyrrolo[3,2-b]pyridin-5-one)] | 7.94 to 15.8 | 7.94 to 15.8 | 0.49 to 12.6 | 3160 to 10000 | 7.94 to 15.8 | 1000 to 3160 |  |  |  |  |  |  | 
2 | C[C@@H]1CN(CC(=O)N2CC(C)(C)c3[nH]c(=O)c(Cc4ccc(F)cc4)cc32)[C@@H](CN2CCO[C@H](COCCCCCCOC[C@@H]3CN(C[C@H]4CN[C@H](C)CN4CC(=O)N4CC(C)(C)c5[nH]c(=O)c(Cc6ccc(F)cc6)cc54)CCO3)C2)CN1 [Example 64, 1,1′-(2,2′-((3R,3′R,6R,6′R)-(((2S,2'S)-((hexane-1,6-diylbis(oxy))bis(methylene))bis(morpholine-2,4-diyl))bis(methylene))bis(3-methylpiperazine-6,1-diyl))bis(acetyl))bis(6-(4-fluorobenzyl)-3,3-dimethyl-1,2,3,4-tetrahydro-5H-pyrrolo[3,2-b]pyridin-5-one)] | 7.94 to 15.8 | 7.94 to 15.8 | 0.49 to 12.6 | 10000 to 51300 | 1.38 to 7.94 | 10000 to 51300 |  |  |  |  |  |  | 
3 | C[C@@H]1CN(CC(=O)N2CC(C)(C)c3[nH]c(=O)c(Cc4ccc(F)cc4)cc32)[C@@H](CN2CCO[C@H](COc3ccc(C(=O)C(=O)c4ccc(OC[C@@H]5CN(C[C@H]6CN[C@H](C)CN6CC(=O)N6CC(C)(C)c7[nH]c(=O)c(Cc8ccc(F)cc8)cc76)CCO5)cc4)cc3)C2)CN1 [Example 59, 1,2-bis(4-(((S)-4-(((2R,5R)-1-(2-(6-(4-fluorobenzyl)-3,3-dimethyl-5-oxo-2,3,4,5-tetrahydro-1H-pyrrolo[3,2-b]pyridin-1-yl)-2-oxoethyl)-5-methylpiperazin-2-1)methyl)morpholin-2-yl)methoxy)phenyl)ethane-1,2-dione] | 15.8 to 31.6 | 15.8 to 31.6 | 0.49 to 12.6 | 3160 to 10000 | 7.94 to 15.8 | 3160 to 10000 | +++ (10,000>FS>1,000) | +++ (10,000>FS>1,000) |  |  |  |  | 
4 | C[C@@H]1CN(CC(=O)N2CC(C)(C)c3[nH]c(=O)c(Cc4ccc(Cl)cc4Cl)cc32)[C@@H](CN2CCO[C@H](C(=O)NCc3ccc(CNC(=O)[C@@H]4CN(C[C@H]5CN[C@H](C)CN5CC(=O)N5CC(C)(C)c6[nH]c(=O)c(Cc7ccc(Cl)cc7Cl)cc65)CCO4)cc3)C2)CN1 [Compound 165, (2S,2′S)-N,N′-(1,4-phenylenebis(methylene)) bis(4-(((2R,5R)-1-(2-(6-(2,4-dichlorobenzyl)-3,3-dimethyl-5-oxo-2,3,4,5-tetrahydro-1H-pyrrolo[3,2-b]pyridin-1-yl)-2-oxoethyl)-5-methylpiperazin-2-yl)methyl)morpholine-2-carboxamide)] | 7.94 to 15.8 | 31.6 to 501 | 12.6 to 63.1 | 3160 to 10000 | 1.38 to 7.94 | 1000 to 3160 | +++ (10,000>FS>1,000) | +++ (10,000>FS>1,000) |  |  |  |  | 
5 | C[C@@H]1CN(CC(=O)N2CC(C)(C)c3[nH]c(=O)c(Cc4ccc(F)cc4)cc32)[C@@H](CN2CCN(CCCCCCCCCCCCN3CCN(C[C@H]4CN[C@H](C)CN4CC(=O)N4CC(C)(C)c5[nH]c(=O)c(Cc6ccc(F)cc6)cc54)[C@H](C)C3)C[C@H]2C)CN1 [Example 26, 1,1′-(2,2′-((3R,3′R,6R,6′R)-(((2R,2′R)-dodecane-1,12-diylbis(2-methylpiperazine-4,1-diyl))bis(methylene))bis(3-methylpiperazine-6,1-diyl))bis(acetyl))bis(6-(4-fluorobenzyl)-3,3-dimethyl-1,2,3,4-tetrahydro-5H-pyrrolo[3,2-b]pyridin-5-one)] | 31.6 to 501 | 15.8 to 31.6 | 12.6 to 63.1 | 1000 to 3160 | 7.94 to 15.8 | 1000 to 3160 |  |  |  |  |  |  | 
6 | C[C@@H]1CN(CC(=O)N2CC(C)(C)c3[nH]c(=O)c(Cc4ccc(Br)cc4)cc32)[C@@H](CN2CCO[C@H](C(=O)NCc3ccc(CNC(=O)[C@@H]4CN(C[C@H]5CN[C@H](C)CN5CC(=O)N5CC(C)(C)c6[nH]c(=O)c(Cc7ccc(Br)cc7)cc65)CCO4)cc3)C2)CN1 [Compound 162, (2S,2′S)-N,N′-(1,4-phenylenebis(methylene)) bis(4-(((2R,5R)-1-(2-(6-(4-bromobenzyl)-3,3-dimethyl-5-oxo-2,3,4,5-tetrahydro-1H-pyrrolo[3,2-b]pyridin-1-yl)-2-oxoethyl)-5-methylpiperazin-2-yl)methyl)morpholine-2-carboxamide)] | 1.38 to 7.94 | 15.8 to 31.6 | 12.6 to 63.1 | 22.4 to 1000 | 1.38 to 7.94 | 22.4 to 1000 | ++ (1,000>FS>100) | +++ (10,000>FS>1,000) |  |  |  |  | 
7 | C[C@@H]1CN(CC(=O)N2CC(C)(C)c3[nH]c(=O)c(Cc4ccc(F)cc4)cc32)[C@@H](CN2CCC[C@H](NC(=O)CCCCCCCCCCCCC(=O)N[C@H]3CCCN(C[C@H]4CN[C@H](C)CN4CC(=O)N4CC(C)(C)c5[nH]c(=O)c(Cc6ccc(F)cc6)cc54)C3)C2)CN1 [Example 40, N^1,N^14-bis((S)-1-(((2R,5R)-1-(2-(6-(4-fluorobenzyl)-3,3-dimethyl-5-oxo-2,3,4,5-tetrahydro-1H-pyrrolo[3,2-b]pyridin-1-yl)-2-oxoethyl)-5-methylpiperazin-2-yl)methyl)piperidin-3-yl)tetradecanediamide] | 15.8 to 31.6 | 31.6 to 501 | 63.1 to 316 | 10000 to 51300 | 15.8 to 31.6 | 10000 to 51300 | +++ (10,000>FS>1,000) | +++ (10,000>FS>1,000) |  |  |  |  | 
8 | C[C@@H]1CN(CC(=O)N2CC(C)(C)c3[nH]c(=O)c(Cc4cc(F)c(F)c(F)c4F)cc32)[C@@H](CN2CCO[C@H](C(=O)NCc3ccc(CNC(=O)[C@@H]4CN(C[C@H]5CN[C@H](C)CN5CC(=O)N5CC(C)(C)c6[nH]c(=O)c(Cc7cc(F)c(F)c(F)c7F)cc65)CCO4)cc3)C2)CN1 [Compound 174, (2S,2′S)-N,N′-(1,4-phenylenebis(methylene)) bis(4-(((2R,5R)-1-(2-(3,3-dimethyl-5-oxo-6-(2,3,4,5-tetrafluorobenzyl)-2,3,4,5-tetrahydro-1H-pyrrolo[3,2-b]pyridin-1-yl)-2-oxoethyl)-5-methylpiperazin-2-yl)methyl)morpholine-2-carboxamide)] |  |  | 0.49 to 12.6 |  |  |  | +++ (10,000>FS>1,000) | +++ (10,000>FS>1,000) | +++ (8.10>pIC50>=7.80) | ++ (7.80>pIC50>=7.50) | ++ (5.00<pIC50<=5.50) | +++ (8.10>pIC50>=7.80) | ++ (5.00<pIC50<=5.50)
